Measured values from the NIST ThermoML archive (doi:10.1021/acs.jced.5b00259).
Numbers after ± are expanded uncertainties.

Legend:
[1] = xn = mol fraction of the nth substance listed; details: 100 kPa, Liquid, x2 = 0
[2] = 100 kPa, Liquid

Row | Compound | mass density ([1]; 293.15 K) [kg/m3] | viscosity ([1]; 293.15 K) [mPa·s] | mass density ([1]; 298.15 K) [kg/m3] | viscosity ([1]; 298.15 K) [mPa·s] | mass density ([1]; 303.15 K) [kg/m3] | viscosity ([1]; 303.15 K) [mPa·s] | mass density ([1]; 308.15 K) [kg/m3] | viscosity ([1]; 308.15 K) [mPa·s] | mass density ([1]; 313.15 K) [kg/m3] | viscosity ([1]; 313.15 K) [mPa·s] | mass density ([1]; 318.15 K) [kg/m3] | viscosity ([1]; 318.15 K) [mPa·s] | mass density ([1]; 323.15 K) [kg/m3] | viscosity ([1]; 323.15 K) [mPa·s] | mass density ([2]; 293.15 K) [kg/m3] | viscosity ([2]; 293.15 K) [mPa·s] | mass density ([2]; 298.15 K) [kg/m3] | viscosity ([2]; 298.15 K) [mPa·s] | mass density ([2]; 303.15 K) [kg/m3] | viscosity ([2]; 303.15 K) [mPa·s] | other results
1 | CCCO [propan-1-ol] + CC[NH+]=C(N(C)C)N(C)C.O=S(=O)([N-]S(=O)(=O)C(F)(F)F)C(F)(F)F | 803.49 ± 0.43 | 2.164 ± 0.087 | 799.49 ± 0.44 | 1.948 ± 0.078 | 795.46 ± 0.45 | 1.707 ± 0.069 | 791.39 ± 0.45 | 1.525 ± 0.061 | 787.29 ± 0.46 | 1.366 ± 0.055 | 783.14 ± 0.46 | 1.228 ± 0.05 | 778.93 ± 0.47 | 1.107 ± 0.045 |  |  |  |  |  |  | 
2 | CCOS(=O)(=O)[O-].CC[NH+]=C(N(C)C)N(C)C [2-ethyl-1,1,3,3-tetramethylguanidinium ethyl sulfate] |  |  |  |  |  |  |  |  |  |  |  |  |  |  | 1170.76 ± 1.5 | 673.4 ± 300 | 1167.24 ± 1.5 | 441.5 ± 170 | 1163.76 ± 1.5 | 302.5 ± 95 | mass density ([2]; 308.15 K): 1160.28 ± 1.5 kg/m3; viscosity ([2]; 308.15 K): 214.6 ± 54 mPa·s; mass density ([2]; 313.15 K): 1156.8 ± 1.4 kg/m3; viscosity ([2]; 313.15 K): 157.2 ± 31 mPa·s; mass density ([2]; 318.15 K): 1153.33 ± 1.4 kg/m3; viscosity ([2]; 318.15 K): 118.3 ± 18 mPa·s; mass density ([2]; 323.15 K): 1149.87 ± 1.4 kg/m3; viscosity ([2]; 323.15 K): 91.22 ± 9.6 mPa·s
3 | CCO [ethanol] |  |  |  |  |  |  |  |  |  |  |  |  |  |  | 789.62 ± 0.46 | 1.177 ± 0.047 | 785.25 ± 0.47 | 1.071 ± 0.043 | 780.89 ± 0.47 | 0.978 ± 0.04 | mass density ([2]; 308.15 K): 776.52 ± 0.48 kg/m3; viscosity ([2]; 308.15 K): 0.895 ± 0.036 mPa·s; mass density ([2]; 313.15 K): 772.12 ± 0.49 kg/m3; viscosity ([2]; 313.15 K): 0.822 ± 0.033 mPa·s; mass density ([2]; 318.15 K): 767.71 ± 0.49 kg/m3; viscosity ([2]; 318.15 K): 0.756 ± 0.031 mPa·s; mass density ([2]; 323.15 K): 763.26 ± 0.5 kg/m3; viscosity ([2]; 323.15 K): 0.698 ± 0.028 mPa·s
4 | CCO [ethanol] + CCOS(=O)(=O)[O-].CC[NH+]=C(N(C)C)N(C)C | 789.62 ± 0.46 | 1.177 ± 0.047 | 785.25 ± 0.47 | 1.071 ± 0.043 | 780.89 ± 0.47 | 0.978 ± 0.04 | 776.52 ± 0.48 | 0.895 ± 0.036 | 772.12 ± 0.49 | 0.822 ± 0.033 | 767.71 ± 0.49 | 0.756 ± 0.031 | 763.26 ± 0.5 | 0.698 ± 0.028 |  |  |  |  |  |  | 
5 | CCCO [propan-1-ol] + CCOS(=O)(=O)[O-].CC[NH+]=C(N(C)C)N(C)C | 803.49 ± 0.43 | 2.164 ± 0.17 | 799.49 ± 0.44 | 1.948 ± 0.16 | 795.46 ± 0.45 | 1.707 ± 0.14 | 791.39 ± 0.45 | 1.525 ± 0.12 | 787.29 ± 0.46 | 1.366 ± 0.11 | 783.14 ± 0.46 | 1.228 ± 0.099 | 778.93 ± 0.47 | 1.107 ± 0.089 |  |  |  |  |  |  | 
6 | CC[NH+]=C(N(C)C)N(C)C.O=S(=O)([N-]S(=O)(=O)C(F)(F)F)C(F)(F)F |  |  |  |  |  |  |  |  |  |  |  |  |  |  | 1414.89 ± 12 | 74.61 ± 5.5 | 1410.03 ± 12 | 58.86 ± 2.3 | 1405.19 ± 12 | 47.27 ± 2.3 | mass density ([2]; 308.15 K): 1400.38 ± 12 kg/m3; viscosity ([2]; 308.15 K): 38.71 ± 1.8 mPa·s; mass density ([2]; 313.15 K): 1395.59 ± 12 kg/m3; viscosity ([2]; 313.15 K): 32.2 ± 1.5 mPa·s; mass density ([2]; 318.15 K): 1390.8 ± 12 kg/m3; viscosity ([2]; 318.15 K): 27.09 ± 1.3 mPa·s; mass density ([2]; 323.15 K): 1386.03 ± 12 kg/m3; viscosity ([2]; 323.15 K): 23.14 ± 1.1 mPa·s
7 | CCCO [propan-1-ol] |  |  |  |  |  |  |  |  |  |  |  |  |  |  | 803.49 ± 0.43 | 2.164 ± 0.087 | 799.49 ± 0.44 | 1.948 ± 0.078 | 795.46 ± 0.45 | 1.707 ± 0.069 | mass density ([2]; 308.15 K): 791.39 ± 0.45 kg/m3; viscosity ([2]; 308.15 K): 1.525 ± 0.061 mPa·s; mass density ([2]; 313.15 K): 787.29 ± 0.46 kg/m3; viscosity ([2]; 313.15 K): 1.366 ± 0.055 mPa·s; mass density ([2]; 318.15 K): 783.14 ± 0.46 kg/m3; viscosity ([2]; 318.15 K): 1.228 ± 0.05 mPa·s; mass density ([2]; 323.15 K): 778.93 ± 0.47 kg/m3; viscosity ([2]; 323.15 K): 1.107 ± 0.045 mPa·s
8 | CCO [ethanol] + CC[NH+]=C(N(C)C)N(C)C.O=S(=O)([N-]S(=O)(=O)C(F)(F)F)C(F)(F)F | 789.62 ± 0.46 | 1.177 ± 0.047 | 785.25 ± 0.47 | 1.071 ± 0.043 | 780.89 ± 0.47 | 0.978 ± 0.04 | 776.52 ± 0.48 | 0.895 ± 0.036 | 772.12 ± 0.49 | 0.822 ± 0.033 | 767.71 ± 0.49 | 0.756 ± 0.031 | 763.26 ± 0.5 | 0.698 ± 0.028 |  |  |  |  |  |  | 
